Data from patent US12139520B2 (priority 2020, dated 2024).
Bridge positions count the residues as written; N and C are the ends. Square brackets hold non-standard residues; d marks the D form. Peptide text beside a SMILES is read from it. Hyp = O=C(O)[C@@H]1C[C@@H](O)CN1

Key:
hAMY3 receptor = molecular target: T1, hAMY3 receptor (Homo sapiens, UniProt O60896+P30988); assay: cAMP assay for in vitro receptor activation, hAMY3-R; assay type: cell-based; details: cAMP assay, hAMY3 receptor; read-out: hAMY3R EC50
T1 sequence (P30988 25-474): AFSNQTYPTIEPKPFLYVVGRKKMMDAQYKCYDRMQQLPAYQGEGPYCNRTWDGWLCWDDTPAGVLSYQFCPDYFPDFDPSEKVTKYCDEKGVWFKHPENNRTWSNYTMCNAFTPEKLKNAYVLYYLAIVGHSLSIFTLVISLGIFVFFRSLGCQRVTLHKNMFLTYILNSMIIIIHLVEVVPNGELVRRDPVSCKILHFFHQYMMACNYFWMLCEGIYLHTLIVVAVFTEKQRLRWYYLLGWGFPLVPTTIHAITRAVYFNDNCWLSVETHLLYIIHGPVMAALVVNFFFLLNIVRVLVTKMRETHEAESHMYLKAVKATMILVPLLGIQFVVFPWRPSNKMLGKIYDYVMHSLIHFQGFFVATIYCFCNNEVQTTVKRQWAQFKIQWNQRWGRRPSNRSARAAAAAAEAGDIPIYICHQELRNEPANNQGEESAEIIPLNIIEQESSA
T1 sequence (O60896 24-148 partner): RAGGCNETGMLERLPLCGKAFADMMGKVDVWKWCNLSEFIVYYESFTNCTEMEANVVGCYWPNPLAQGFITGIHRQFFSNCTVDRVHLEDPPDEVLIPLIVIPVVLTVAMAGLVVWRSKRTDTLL
Summary of the method: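 Receptor activation was measured as cAMP accumulation in a monoclonal cell line stably overexpressing hAMY3. Stimulation with graded doses lasted 30 min at room temperature in the presence of 0.5 mM IBMX, with human amylin as positive control.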

[1] = Physical stability of peptide analogues (Thioflavin T fibrillation); assay type: physicochemical; details: maximum ThT signal normalized between hAMY maximum and buffer background; 40° C., shaking, four days; pH 7 per table title
Summary of the method: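 1 h in 50 mM NaOAc pH 4 / 50 mM NaPi pH 7; + ThT 4 μM final; 40 °C, 700 rpm linear shake 5 min pre-read; ex 450, em 480 nm q10 min × 4 d; LOESS smoothing; max signal normalised to hAMY max vs buffer blank.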

CC[C@H](C)[C@H](NC(=O)[C@H](CCC(N)=O)NC(=O)[C@H](Cc1c[nH]cn1)NC(=O)[C@H](C)NC(=O)[C@H](CC(C)C)NC(=O)[C@H](CCCNC(=N)N)NC(=O)[C@H](CCC(N)=O)NC(=O)[C@@H](NC(=O)[C@@H](NC(=O)[C@@H]1CSSC[C@H](NC(=O)CN)C(=O)N[C@@H](CCCNC(=N)N)C(=O)N[C@@H]([C@@H](C)O)C(=O)NCC(=O)N[C@@H]([C@@H](C)O)C(=O)N1)[C@@H](C)O)C(C)C)C(=O)N[C@@H](Cc1ccc(O)cc1)C(=O)N[C@@H](CCC(N)=O)C(=O)N[C@@H](Cc1ccccc1)C(=O)N[C@H](C(=O)N[C@@H](CC(=O)O)C(=O)N[C@@H](CCCCN)C(=O)N[C@@H](CC(=O)O)C(=O)N[C@@H](CCCCN)C(=O)N[C@@H](CC(=O)O)C(=O)N[C@@H](CC(N)=O)C(=O)N[C@H](C(=O)N[C@@H](C)C(=O)N1CCC[C@H]1C(=O)N[C@@H](CCCNC(=N)N)C(=O)N[C@@H](CO)C(=O)N[C@@H](CCCCN)C(=O)N[C@H](C(=O)NCC(=O)N1CCC[C@H]1C(=O)N[C@@H](CC(N)=O)C(=O)NCC(=O)N1C[C@H](O)C[C@H]1C(N)=O)C(C)C)C(C)C)[C@@H](C)O [compound 139] (H-GCRTGTCTVQRLAHQIYQFTDKDKDNVAPRSKVGPNG[Hyp]-NH2; disulfide 2-7; N-terminus assumed)
EC50 (hAMY3 receptor): 0.035 nM | Max ThT signal (%) [1]: 4.800%

CC[C@H](C)[C@H](NC(=O)[C@H](CCC(N)=O)NC(=O)[C@H](Cc1c[nH]cn1)NC(=O)[C@H](C)NC(=O)[C@H](CC(C)C)NC(=O)[C@H](CCCNC(=N)N)NC(=O)[C@H](CCC(N)=O)NC(=O)[C@@H](NC(=O)[C@@H](NC(=O)[C@@H]1CSSC[C@H](NC(=O)CN)C(=O)N[C@@H](CCCNC(=N)N)C(=O)N[C@@H](Cc2ccccc2)C(=O)NCC(=O)N[C@@H]([C@@H](C)O)C(=O)N1)[C@@H](C)O)C(C)C)C(=O)N[C@@H](Cc1ccc(O)cc1)C(=O)N[C@@H](CCC(N)=O)C(=O)N[C@@H](Cc1ccccc1)C(=O)N[C@H](C(=O)N[C@@H](CC(=O)O)C(=O)N[C@@H](CCCCN)C(=O)N[C@@H](CC(=O)O)C(=O)N[C@@H](CCCCN)C(=O)N[C@@H](CC(=O)O)C(=O)N[C@@H](CC(N)=O)C(=O)N[C@H](C(=O)N[C@@H](C)C(=O)N1CCC[C@H]1C(=O)N[C@@H](CCCNC(=N)N)C(=O)N[C@H](C(=O)N[C@@H](CC(N)=O)C(=O)N[C@H](C(=O)N[C@@H](CO)C(=O)N1CCC[C@H]1C(=O)N[C@@H](CCC(N)=O)C(=O)NCC(=O)N[C@@H](Cc1ccc(O)cc1)C(N)=O)[C@@H](C)CC)[C@@H](C)O)C(C)C)[C@@H](C)O [compound 140] (H-GCRFGTCTVQRLAHQIYQFTDKDKDNVAPRTNISPQGY-NH2; disulfide 2-7; N-terminus assumed)
EC50 (hAMY3 receptor): 0.036 nM | Max ThT signal (%) [1]: 3.100%

CC[C@H](C)[C@H](NC(=O)[C@H](CCC(N)=O)NC(=O)[C@H](Cc1c[nH]cn1)NC(=O)[C@H](C)NC(=O)[C@H](CC(C)C)NC(=O)[C@H](CCCNC(=N)N)NC(=O)[C@H](CCC(N)=O)NC(=O)[C@@H](NC(=O)[C@@H](NC(=O)[C@@H]1CSSC[C@H](NC(=O)CN)C(=O)N[C@@H](CCCNC(=N)N)C(=O)N[C@@H](Cc2ccccc2)C(=O)NCC(=O)N[C@@H]([C@@H](C)O)C(=O)N1)[C@@H](C)O)C(C)C)C(=O)N[C@@H](Cc1ccc(O)cc1)C(=O)N[C@@H](CCC(N)=O)C(=O)N[C@@H](Cc1ccccc1)C(=O)N[C@H](C(=O)N[C@@H](CC(=O)O)C(=O)N[C@@H](CCCCN)C(=O)N[C@@H](CC(=O)O)C(=O)N[C@@H](CCCCN)C(=O)N[C@@H](CC(=O)O)C(=O)N[C@@H](CC(N)=O)C(=O)N[C@H](C(=O)N[C@@H](C)C(=O)N1CCC[C@H]1C(=O)N[C@@H](CCCNC(=N)N)C(=O)N[C@H](C(=O)N[C@@H](CC(N)=O)C(=O)N[C@H](C(=O)N[C@@H](CO)C(=O)N1CCC[C@H]1C(=O)N[C@@H](CCC(N)=O)C(=O)NCC(=O)N1C[C@H](O)C[C@H]1C(N)=O)[C@@H](C)CC)[C@@H](C)O)C(C)C)[C@@H](C)O [compound 141] (H-GCRFGTCTVQRLAHQIYQFTDKDKDNVAPRTNISPQG[Hyp]-NH2; disulfide 2-7; N-terminus assumed)
EC50 (hAMY3 receptor): 0.036 nM | Max ThT signal (%) [1]: 3.200%

CC[C@H](C)[C@H](NC(=O)[C@H](CCC(N)=O)NC(=O)[C@H](Cc1c[nH]cn1)NC(=O)[C@H](C)NC(=O)[C@H](CC(C)C)NC(=O)[C@H](CCCNC(=N)N)NC(=O)[C@H](CCC(N)=O)NC(=O)[C@@H](NC(=O)[C@@H](NC(=O)[C@@H]1CSSC[C@H](NC(=O)CN)C(=O)N[C@@H](CCCNC(=N)N)C(=O)N[C@@H]([C@@H](C)O)C(=O)NCC(=O)N[C@@H]([C@@H](C)O)C(=O)N1)[C@@H](C)O)C(C)C)C(=O)N[C@@H](Cc1ccc(O)cc1)C(=O)N[C@@H](CCC(N)=O)C(=O)N[C@@H](Cc1ccccc1)C(=O)N[C@H](C(=O)N[C@@H](CC(=O)O)C(=O)N[C@@H](CCCCN)C(=O)N[C@@H](CC(=O)O)C(=O)N[C@@H](CCCCN)C(=O)N[C@@H](CC(=O)O)C(=O)N[C@@H](CC(N)=O)C(=O)N[C@H](C(=O)N[C@@H](C)C(=O)N1CCC[C@H]1C(=O)N[C@@H](CCCNC(=N)N)C(=O)N[C@H](C(=O)N[C@@H](CCCCN)C(=O)N[C@H](C(=O)NCC(=O)N1CCC[C@H]1C(=O)N[C@@H](CCC(N)=O)C(=O)NCC(=O)N1C[C@H](O)C[C@H]1C(N)=O)C(C)C)[C@@H](C)O)C(C)C)[C@@H](C)O [compound 143] (H-GCRTGTCTVQRLAHQIYQFTDKDKDNVAPRTKVGPQG[Hyp]-NH2; disulfide 2-7; N-terminus assumed)
EC50 (hAMY3 receptor): 0.038 nM | Max ThT signal (%) [1]: 2.200%

CC[C@H](C)[C@H](NC(=O)[C@H](CCC(N)=O)NC(=O)[C@H](Cc1c[nH]cn1)NC(=O)[C@H](C)NC(=O)[C@H](CC(C)C)NC(=O)[C@H](CCCNC(=N)N)NC(=O)[C@H](CCC(N)=O)NC(=O)[C@@H](NC(=O)[C@@H](NC(=O)[C@@H]1CSSC[C@H](NC(=O)CN)C(=O)N[C@@H](CCCNC(=N)N)C(=O)N[C@@H](Cc2ccccc2)C(=O)NCC(=O)N[C@@H]([C@@H](C)O)C(=O)N1)[C@@H](C)O)C(C)C)C(=O)N[C@@H](Cc1ccc(O)cc1)C(=O)N[C@@H](CCC(N)=O)C(=O)N[C@@H](Cc1ccccc1)C(=O)N[C@H](C(=O)N[C@@H](CC(=O)O)C(=O)N[C@@H](CCCCN)C(=O)N[C@@H](CC(=O)O)C(=O)N[C@@H](CCCCN)C(=O)N[C@@H](CC(=O)O)C(=O)N[C@@H](CC(N)=O)C(=O)N[C@H](C(=O)N[C@@H](C)C(=O)N1CCC[C@H]1C(=O)N[C@@H](CCCNC(=N)N)C(=O)N[C@@H](CO)C(=O)N[C@@H](CC(N)=O)C(=O)N[C@H](C(=O)N[C@@H](CO)C(=O)N1CCC[C@H]1C(=O)N[C@@H](CCC(N)=O)C(=O)NCC(=O)N1C[C@H](O)C[C@H]1C(N)=O)C(C)C)C(C)C)[C@@H](C)O [compound 145] (H-GCRFGTCTVQRLAHQIYQFTDKDKDNVAPRSNVSPQG[Hyp]-NH2; disulfide 2-7; N-terminus assumed)
EC50 (hAMY3 receptor): 0.039 nM | Max ThT signal (%) [1]: 2.000%

CC[C@H](C)[C@H](NC(=O)[C@H](CCC(N)=O)NC(=O)[C@H](Cc1c[nH]cn1)NC(=O)[C@H](C)NC(=O)[C@H](CC(C)C)NC(=O)[C@H](CCCNC(=N)N)NC(=O)[C@H](CCC(N)=O)NC(=O)[C@@H](NC(=O)[C@@H](NC(=O)[C@@H]1CSSC[C@H](NC(=O)CN)C(=O)N[C@@H](CCCNC(=N)N)C(=O)N[C@@H](Cc2ccccc2)C(=O)NCC(=O)N[C@@H]([C@@H](C)O)C(=O)N1)[C@@H](C)O)C(C)C)C(=O)N[C@@H](Cc1ccc(O)cc1)C(=O)N[C@@H](CCC(N)=O)C(=O)N[C@@H](Cc1ccccc1)C(=O)N[C@H](C(=O)N[C@@H](CC(=O)O)C(=O)N[C@@H](CCCCN)C(=O)N[C@@H](CC(=O)O)C(=O)N[C@@H](CCCCN)C(=O)N[C@@H](CC(=O)O)C(=O)N[C@@H](CC(N)=O)C(=O)N[C@H](C(=O)N[C@@H](C)C(=O)N1CCC[C@H]1C(=O)N[C@@H](CCCNC(=N)N)C(=O)N[C@H](C(=O)N[C@@H](CCCCN)C(=O)N[C@H](C(=O)N[C@@H](CO)C(=O)N1CCC[C@H]1C(=O)N[C@@H](CCC(N)=O)C(=O)NCC(=O)N1C[C@H](O)C[C@H]1C(N)=O)[C@@H](C)CC)[C@@H](C)O)C(C)C)[C@@H](C)O [compound 146] (H-GCRFGTCTVQRLAHQIYQFTDKDKDNVAPRTKISPQG[Hyp]-NH2; disulfide 2-7; N-terminus assumed)
EC50 (hAMY3 receptor): 0.04 nM | Max ThT signal (%) [1]: 3.600%
